According to EP3641735B1, “PHARMACEUTICAL TABLET COMPOSITION COMPRISING BILASTINE FORM 3 AND A WATER-SOLUBLE FILLER” (Alfred E. Tiefenbacher (GmbH & Co. KG), priority 2017, dated 2019):

Key:
[1] = neat forms; 1 month at 25°C/60%RH and at 40°C/75%RH; cited from earlier work
[2] = Polymorphic analysis of API by XRD before and after micronisation (jet milling); format: physicochemical
Source text: For example, two from five batches of micronized API have shown the contamination of form 2 with form 3 and dihydrate form A.

| Structure (SMILES) | polymorphic stability on storage [1] | polymorphic form of API after micronisation (XRD) ([2]; listed as polymorphic form 2) | polymorphic form of API after micronisation (XRD) ([2]; listed as Bilastine form 3) |
| --- | --- | --- | --- |
| CCOCCn1c(C2CCN(CCc3ccc(C(C)(C)C(=O)O)cc3)CC2)nc2ccccc21 [Alpha, 2-[4-(2-(4-(1-(2-ethoxyethyl)-1H-benzimidazol-2-yl)piperidin-1-yl)ethyl)phenyl]-2-methylpropionic acid] | stable on storage | – | – |
| CCOCCn1c(C2CCN(CCc3ccc(C(C)(C)C(=O)O)cc3)CC2)nc2ccccc21 [form 2, 2-[4-(2-(4-(1-(2-ethoxyethyl)-1H-benzimidazol-2-yl)piperidin-1-yl)ethyl)phenyl]-2-methylpropionic acid] | stable on storage | presence of form 3 and dihydrate form A as polymorphic impurities | – |
| CCOCCn1c(C2CCN(CCc3ccc(C(C)(C)C(=O)O)cc3)CC2)nc2ccccc21 [form 1, 2-[4-(2-(4-(1-(2-ethoxyethyl)-1H-benzimidazol-2-yl)piperidin-1-yl)ethyl)phenyl]-2-methylpropionic acid] | stable on storage | – | – |
| CCOCCn1c(C2CCN(CCc3ccc(C(C)(C)C(=O)O)cc3)CC2)nc2ccccc21 [form 3, 2-[4-(2-(4-(1-(2-ethoxyethyl)-1H-benzimidazol-2-yl)piperidin-1-yl)ethyl)phenyl]-2-methylpropionic acid] | converted partially into the form 1 | – | remains in the polymorphic form 3 without changes |
| CCOCCn1c(C2CCN(CCc3ccc(C(C)(C)C(=O)O)cc3)CC2)nc2ccccc21 [Eta, 2-[4-(2-(4-(1-(2-ethoxyethyl)-1H-benzimidazol-2-yl)piperidin-1-yl)ethyl)phenyl]-2-methylpropionic acid] | stable on storage | – | – |
